Patent publication US11051515B2, “3-acyl-benzamides and their use as herbicides” (Bayer Aktiengesellschaft, priority 2017, dated 2021)

Assays:
ALOMY = assay: Pre-emergence action against ALOMY; assay type: in vivo, Alopecurus myosuroides; settings: dosage 320 g/ha, pre-emergence, scored visually after 3 weeks vs untreated controls, 100% = plants have died, 0% = like control plants
Method in brief: (§1)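 Seeds sown in sandy loam in wood-fiber pots and covered with soil. Greenhouse growth; visual damage scored after 3 weeks versus untreated controls (100% = dead, 0% = like control).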

ECHCG [1] = assay: Pre-emergence action against ECHCG; assay type: in vivo, Echinochloa crus-galli; settings: pre-emergence, dosage 320 g/ha, scored visually after 3 weeks vs untreated controls
Method in brief: as §1

SETVI [2] = assay: Pre-emergence action against SETVI; assay type: in vivo, Setaria viridis; settings: pre-emergence, dosage 320 g/ha, scored visually after 3 weeks vs untreated controls
Method in brief: as §1

ABUTH [3] = assay: Pre-emergence action against ABUTH; assay type: in vivo, Abutilon theophrasti; settings: pre-emergence, dosage 320 g/ha, scored visually after 3 weeks vs untreated controls
Method in brief: as §1

AMARE [4] = assay: Pre-emergence action against AMARE; assay type: in vivo, Amaranthus retroflexus; settings: pre-emergence, dosage 320 g/ha, scored visually after 3 weeks vs untreated controls
Method in brief: as §1

MATIN [5] = assay: Pre-emergence action against MATIN; assay type: in vivo, Matricaria inodora; settings: Dosage 320 g/ha, pre-emergence
Method in brief: as §1

POLCO [6] = assay: Pre-emergence action against POLCO; assay type: in vivo, Polygonum convolvulus; settings: Dosage 320 g/ha, pre-emergence
Excerpt: Seeds of monocotyledonous and dicotyledonous weed plants and crop plants are laid out in sandy loam soil in wood-fiber pots and covered with soil. The compounds of the invention, formulated in the form of wettable powders (WP) or as emulsion concentrates (EC), are then applied to the surface of the covering soil in the form of an aqueous suspension or emulsion at a water application rate equating to […], with addition of 0.2% wetting agent. After the treatment, the pots are placed in a greenhouse and kept under good growth conditions for the trial plants. The damage to the test plants is scored visually after a test period of 3 weeks by comparison with untreated controls (herbicidal activity in percent (%): 100% activity=the plants have died, 0% activity=like control plants).

STEME [7] = assay: Pre-emergence action against STEME; assay type: in vivo, Stellaria media; settings: Dosage 320 g/ha, pre-emergence
Method in brief: as §1

VIOTR [8] = assay: Pre-emergence action against VIOTR; assay type: in vivo, Viola tricolor; settings: Dosage 320 g/ha, pre-emergence
Method in brief: as §1

ECHCG [9] = assay: Post-emergence action against ECHCG; assay type: in vivo, Echinochloa crus-galli; settings: post-emergence, dosage 80 g/ha, visual assessment about 3 weeks after treatment vs untreated controls
Method in brief: (§2)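 Weeds grown in sandy loam in greenhouse, treated at one-leaf stage (2–3 weeks after sowing) with WP or EC formulations sprayed as aqueous suspension/emulsion at 600 to […] water with 0.2% wetting agent. Visual rating after about 3 weeks versus untreated controls, as % herbicidal action (100% = plants dead, 0% = like control).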

ABUTH [10] = assay: Post-emergence action against ABUTH; assay type: in vivo, Abutilon theophrasti; settings: post-emergence, dosage 80 g/ha, visual assessment about 3 weeks after treatment vs untreated controls
Method in brief: as §2

AMARE [11] = assay: Post-emergence action against AMARE; assay type: in vivo, Amaranthus retroflexus; settings: post-emergence, dosage 80 g/ha, visual assessment about 3 weeks after treatment vs untreated controls
Method in brief: as §2

MATIN [12] = assay: Post-emergence action against MATIN; assay type: in vivo, Matricaria inodora; settings: post-emergence, dosage 80 g/ha, visual assessment about 3 weeks after treatment vs untreated controls
Method in brief: as §2

PHBPU [13] = assay: Post-emergence action against PHBPU; assay type: in vivo, Pharbitis purpurea; settings: post-emergence, dosage 80 g/ha
Method in brief: as §2

POLCO [14] = assay: Post-emergence action against POLCO; assay type: in vivo, Polygonum convolvulus; settings: post-emergence, dosage 80 g/ha
Experimental: Seeds of monocotyledonous and dicotyledonous weed and crop plants are laid out in sandy loam soil in wood-fiber pots, covered with soil and cultivated in a greenhouse under good growth conditions. 2 to 3 weeks after sowing, the test plants are treated at the one-leaf stage. The compounds of the invention, formulated in the form of wettable powders (WP) or as emulsion concentrates (EC), are then sprayed onto the green parts of the plants in the form of an aqueous suspension or emulsion at a water application rate equating to […], with addition of 0.2% wetting agent. After the test plants have been left to stand in the greenhouse under optimal growth conditions for about 3 weeks, the action of the preparations is assessed visually in comparison to untreated controls (herbicidal action in percent (%): 100% activity=the plants have died, 0% activity=like control plants). […] At the same time, inventive compounds leave Gramineae crops such as barley, wheat, rye, millet/Sorghum, corn or rice virtually undamaged when applied post-emergence, even at high active ingredient dosages. In addition, some substances are also harmless to dicotyledonous crops such as soya, cotton, oilseed rape, sugar beet or potatoes. Some of the compounds according to the invention have high selectivity and are therefore suitable for controlling unwanted vegetation in agricultural crops by the post-emergence method. The data of Tables B18 to B34 below illustrate, in an exemplary manner, the […] herbicidal action of the compounds according to the invention, the herbicidal activity being stated in percent.

STEME [15] = assay: Post-emergence action against STEME; assay type: in vivo, Stellaria media; settings: post-emergence, dosage 80 g/ha
Method in brief: as §2

VIOTR [16] = assay: Post-emergence action against VIOTR; assay type: in vivo, Viola tricolor; settings: post-emergence, dosage 80 g/ha
Method in brief: as §2

VERPE [17] = assay: Pre-emergence action against VERPE; assay type: in vivo, Veronica persica; settings: Dosage 320 g/ha, pre-emergence
Method in brief: as §1

SETVI [18] = assay: Post-emergence action against SETVI; assay type: in vivo, Setaria viridis; settings: post-emergence, dosage 80 g/ha, visual assessment about 3 weeks after treatment vs untreated controls
Method in brief: as §2

VERPE [19] = assay: Post-emergence action against VERPE; assay type: in vivo, Veronica persica; settings: dosage 80 g/ha
Method in brief: as §2

AVEFA = assay: Pre-emergence action against AVEFA; assay type: in vivo, Avena fatua; settings: dosage 320 g/ha, scored visually after 3 weeks vs untreated controls
Method in brief: as §1

CYPES [20] = assay: Pre-emergence action against CYPES; assay type: in vivo, Cyperus esculentus; settings: pre-emergence, dosage 320 g/ha, scored visually after 3 weeks vs untreated controls
Method in brief: as §1

CYPES [21] = assay: Post-emergence action against CYPES; assay type: in vivo, Cyperus esculentus; settings: post-emergence, dosage 80 g/ha, visual assessment about 3 weeks after treatment vs untreated controls
Method in brief: as §2

PHBPU [22] = assay: Pre-emergence action against PHBPU; assay type: in vivo, Pharbitis purpurea; settings: Dosage 320 g/ha, pre-emergence
Method in brief: as §1

| Compound | Pre-emergence action against ECHCG (herbicidal activity) (ECHCG [1]) [%] | Pre-emergence action against AMARE (herbicidal activity) (AMARE [4]) [%] | Pre-emergence action against MATIN (MATIN [5]) [%] | Pre-emergence action against STEME (STEME [7]) [%] | Pre-emergence action against VERPE (VERPE [17]) [%] | Post-emergence action against ECHCG (herbicidal action in percent) (ECHCG [9]) [%] | Post-emergence action against SETVI (herbicidal action in percent) (SETVI [18]) [%] | Post-emergence action against AMARE (herbicidal action in percent) (AMARE [11]) [%] | Post-emergence action against MATIN (herbicidal action in percent) (MATIN [12]) [%] | Post-emergence action against PHBPU (PHBPU [13]) | Post-emergence action against POLCO (POLCO [14]) | Post-emergence action against STEME (STEME [15]) | Post-emergence action against VIOTR (VIOTR [16]) | Post-emergence action against VERPE (VERPE [19]) | Pre-emergence action against ALOMY (herbicidal activity in percent) (ALOMY) [%] | Pre-emergence action against ABUTH (herbicidal activity) (ABUTH [3]) [%] | Pre-emergence action against POLCO (POLCO [6]) [%] | Post-emergence action against ABUTH (herbicidal action in percent) (ABUTH [10]) [%] | Pre-emergence action against AVEFA (herbicidal activity) (AVEFA) [%] | Pre-emergence action against CYPES (herbicidal activity) (CYPES [20]) [%] | further results |
| --- | --- | --- | --- | --- | --- | --- | --- | --- | --- | --- | --- | --- | --- | --- | --- | --- | --- | --- | --- | --- | --- |
| CC(=O)c1c(C)ccc(C(=O)Nc2nnnn2C)c1C [1-1] |  |  |  |  |  |  |  |  |  |  |  |  |  |  |  |  |  |  |  |  | pest or weed control at 320 g/ha (ALOMY; Alopecurus myosuroides, 504 h, read-out: Pre-emergence action against ALOMY (herbicidal activity in percent)): 80%; pest or weed control at 320 g/ha (ECHCG [1]; Echinochloa crus-galli, 504 h, read-out: Pre-emergence action against ECHCG (herbicidal activity)): 90%; pest or weed control at 320 g/ha (SETVI [2]; Setaria viridis, 504 h, read-out: SETVI (Table B8, pre-emergence herbicidal activity)): 90%; pest or weed control at 320 g/ha (ABUTH [3]; Abutilon theophrasti, 504 h, read-out: Pre-emergence action against ABUTH (herbicidal activity)): 90%; pest or weed control at 320 g/ha (AMARE [4]; Amaranthus retroflexus, 504 h, read-out: Pre-emergence action against AMARE (herbicidal activity)): 100%; pest or weed control at 320 g/ha (MATIN [5]; Tripleurospermum inodorum, 504 h): 100%; pest or weed control at 320 g/ha (POLCO [6]; Fallopia convolvulus, 504 h): 80%; pest or weed control at 320 g/ha (STEME [7]; Stellaria media, 504 h): 90%; pest or weed control at 320 g/ha (VIOTR [8]; Viola tricolor, 504 h): 100%; pest or weed control at 80 g/ha (ECHCG [9]; Echinochloa crus-galli, 504 h, read-out: Post-emergence action against ECHCG (herbicidal action in percent)): 100%; pest or weed control at 80 g/ha (ABUTH [10]; Abutilon theophrasti, 504 h, read-out: Post-emergence action against ABUTH (herbicidal action in percent)): 100%; pest or weed control at 80 g/ha (AMARE [11]; Amaranthus retroflexus, 504 h, read-out: Post-emergence action against AMARE (herbicidal action in percent)): 100%; pest or weed control at 80 g/ha (MATIN [12]; Tripleurospermum inodorum, 504 h, read-out: Post-emergence action against MATIN (herbicidal action in percent)): 80%; pest or weed control at 80 g/ha (PHBPU [13]; Ipomoea purpurea, 504 h): 90%; pest or weed control at 80 g/ha (POLCO [14]; Fallopia convolvulus, 504 h): 80%; pest or weed control at 80 g/ha (STEME [15]; Stellaria media, 504 h): 100%; pest or weed control at 80 g/ha (VIOTR [16]; Viola tricolor, 504 h): 100% |
| CCn1nnnc1NC(=O)c1ccc(C)c(C(C)=O)c1Cl [2-134] | 80 | 100 | 90 | 90 | 100 | 90 | 80 | 90 | 90 | 80 | 80 | 100 | 100 | 90 |  |  |  |  |  |  |  |
| CCn1nnnc1NC(=O)c1ccc(Cl)c(C(=O)C(C)C)c1Cl [2-280] | 100 | 100 | 100 | 90 | 90 | 90 | 90 | 100 | 90 | 100 | 80 | 100 | 90 |  | 100 | 100 | 80 | 90 |  |  |  |
| CCCn1nnnc1NC(=O)c1ccc(C(F)(F)F)c(C(C)=O)c1SC [3-58] | 100 | 100 | 100 | 90 | 90 | 100 | 80 | 100 | 100 | 90 |  | 100 | 100 | 80 | 90 | 100 | 80 | 100 | 80 | 90 | Pre-emergence action against VIOTR (VIOTR [8]): 100%; Post-emergence action against CYPES (herbicidal action in percent) (CYPES [21]): 100% |
| CCCn1nnnc1NC(=O)c1ccc(C(F)(F)F)c(C(C)=O)c1Cl [3-137] | 100 | 100 | 100 | 100 | 90 | 90 | 100 | 100 | 100 | 100 | 90 | 100 | 100 | 90 | 90 | 100 |  | 90 | 80 | 90 | SETVI (Table B8, pre-emergence herbicidal activity) (SETVI [2]): 90%; Pre-emergence action against PHBPU (PHBPU [22]): 100%; Pre-emergence action against VIOTR (VIOTR [8]): 100% |
